{
  "source": "patent US11059801B2",
  "about": "“Methods to induce targeted protein degradation through bifunctional molecules” (Dana-Farber Cancer Institute, Inc., priority 2014, dated 2021)",
  "key": {"BRD4 [1]": {"target": "T1, BRD4 (Homo sapiens (Human), UniProt O60885)", "assay": "BRD4 AlphaScreen", "assay_type": "binding", "settings": "Table 4-1"}, "[2]": {"target": "BRD4 adjoined to nanoluciferase (Nluc) (Homo sapiens (Human), UniProt O60885+Q96SW2)", "assay": "BRD4 Dual Luciferase Assay", "assay_type": "cell-based", "settings": "for Conc@Emax: concentration at Emax"}, "BRD4 [3]": {"target": "T1, BRD4", "assay": "BRD4 immunoblot in MV4-11 cells", "assay_type": "cell-based", "settings": "MV4-11, 24 h"}, "BRD4 [4]": {"target": "T1, BRD4", "assay": "BRD4 Cell Western (BRD4 levels in 293T cells, LiCOR)", "assay_type": "cell-based"}, "CRBN-DDB1/BRD4": {"target": "CRBN-DDB1/BRD4 (Homo sapiens (Human), UniProt O60885+Q96SW2)", "assay": "CRBN-DDB1/BRD4 Dimerization Assay;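 for all read-outs here: AlphaScreen proximity signal between GST-tagged BRD4 and CRBN-DDB1 with glutathione donor and nickel chelate acceptor beads, read after 1 hr compound incubation at room temperature, values from Gaussian curve fit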", "assay_type": "binding", "settings": "for Dimer Amplitude / Dimer Mean: Gaussian fit of dimerization signal; for Dimer SD: Gaussian fit parameter of dimerization signal"}, "NGP": {"tested_on": "NGP", "assay": "Cell viability, ATPlite, 72 hours", "assay_type": "cell-based", "settings": "NGP cells, Table 4-1"}, "GST-FKBP12 (WT)": {"target": "GST-FKBP12 (WT) (Homo sapiens (Human), UniProt P62942)", "sequence (P62942 whole entry)": "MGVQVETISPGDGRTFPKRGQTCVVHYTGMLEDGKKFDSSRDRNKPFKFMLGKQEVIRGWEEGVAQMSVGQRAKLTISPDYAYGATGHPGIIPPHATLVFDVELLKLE", "assay": "FKBP12 Ligand-Displacement AlphaScreen Assay (WT)", "assay_type": "binding", "settings": "read-out: IC50 (nM) FKBP"}, "GST-FKBP12 (36V)": {"target": "GST-FKBP12 (36V) (Homo sapiens (Human), UniProt P62942, F36V)", "sequence (P62942 whole entry F37V)": "as the sequence (P62942 whole entry) above, with F37V counted along it", "assay": "FKBP12 Ligand-Displacement AlphaScreen Assay (36V)", "assay_type": "binding", "settings": "read-out: IC50 (nM) FKBP 36V"}, "[5]": {"target": "fusion of FKBP12 to nanoluciferase (Homo sapiens (Human), UniProt P62942+Q96SW2)", "assay": "FKBP Dual Luciferase Assay (FKBP12)", "assay_type": "cell-based", "settings": "4 hours"}, "[6]": {"target": "fusion of mutant FKBP12 to nanoluciferase (Homo sapiens (Human), UniProt P62942+Q96SW2, F36V)", "assay": "FKBP Dual Luciferase Assay (mutant FKBP12, 36V);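 note: cells exposed to rising degrader concentrations, FKBP12 fusion level read as NLuc/FLuc signal ratio, lower ratio means more degradation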", "assay_type": "cell-based", "settings": "4 hours"}},
  "data": [
    {"smiles": "Cc1cnc(Nc2ccc(N3CCN(C(=O)CCCNC(=O)COc4cccc5c4C(=O)N(C4CCC(=O)NC4=O)C5=O)CC3)cc2)nc1Nc1cccc(S(=O)(=O)NC(C)(C)C)c1", "note": "(stereo not shown) [dBET20]", "values": [
      {"measurement": "IC50", "setting": "BRD4 [1]", "result": 5700, "unit": "nM"},
      {"measurement": "pDC50 (dual luc)", "setting": "[2]; 4 hours", "result": 6.686}
    ]},
    {"smiles": "O=C1CCC(N2C(=O)c3ccccc3C2=O)C(=O)N1", "note": "(stereo not shown) [thalidomide]", "values": [
      {"measurement": "BRD4 degradation by compound alone (immunoblot)", "setting": "BRD4 [3]", "result": "insufficient to induce BRD4 degradation"}
    ]},
    {"smiles": "CC[C@@H]1C(=O)N(C)c2cnc(Nc3ccc(C(=O)NCCCOCCOCCOCCCNC(=O)COc4cccc5c4C(=O)N(C4CCC(=O)NC4=O)C5=O)cc3OC)nc2N1C1CCCC1", "note": "(stereo partly shown) [dBET10]", "values": [
      {"measurement": "DC50", "setting": "BRD4 [4]", "result": 58, "unit": "nM"},
      {"measurement": "Conc@Emax", "setting": "[2]", "result": 50, "unit": "µM"},
      {"measurement": "Dimer Amplitude", "setting": "CRBN-DDB1/BRD4", "result": 12824},
      {"measurement": "Dimer Mean", "setting": "CRBN-DDB1/BRD4", "result": "−7.349"},
      {"measurement": "Dimer SD", "setting": "CRBN-DDB1/BRD4", "result": 0.5165}
    ]},
    {"smiles": "COc1cc(C(=O)NCCCOCCOCCOCCCNC(=O)COc2cccc3c2C(=O)N(C2CCC(=O)NC2=O)C3=O)ccc1Nc1ncc2c(n1)N(C)c1ccccc1C(=O)N2C", "note": "(stereo not shown) [dBET12]", "values": [
      {"measurement": "IC50", "setting": "BRD4 [1]", "result": 2080, "unit": "nM"},
      {"measurement": "Dimer Amplitude", "setting": "CRBN-DDB1/BRD4", "result": 173.7},
      {"measurement": "Dimer Mean", "setting": "CRBN-DDB1/BRD4", "result": "−6.366"},
      {"measurement": "Dimer SD", "setting": "CRBN-DDB1/BRD4", "result": 3.287}
    ]},
    {"smiles": "Cc1sc2c(c1C)C(c1ccc(Cl)cc1)=N[C@@H](CC(=O)NCCCN1CCN(C(=O)CCCCCNC(=O)COc3cccc4c3C(=O)N(C3CCC(=O)NC3=O)C4=O)CC1)c1nnc(C)n1-2", "note": "(stereo partly shown) [dBET18]", "values": [
      {"measurement": "DC50", "setting": "BRD4 [4]", "result": 196, "unit": "nM"},
      {"measurement": "DC50", "setting": "[2]; Dual Luciferase, 4 hours", "result": 243, "unit": "nM"},
      {"measurement": "Conc@Emax", "setting": "[2]", "result": 1.581, "unit": "µM"},
      {"measurement": "pDC50 (dual luc)", "setting": "[2]; 4 hours", "result": 6.614},
      {"measurement": "Dimer Amplitude", "setting": "CRBN-DDB1/BRD4", "result": 13116},
      {"measurement": "Dimer Mean", "setting": "CRBN-DDB1/BRD4", "result": "−8.173"},
      {"measurement": "Dimer SD", "setting": "CRBN-DDB1/BRD4", "result": 0.618}
    ]},
    {"smiles": "Cc1sc2c(c1C)C(c1ccc(Cl)cc1)=N[C@@H](CC(=O)NCCCCCCCCNC(=O)COc1cccc3c1C(=O)N(C1CCC(=O)NC1=O)C3=O)c1nnc(C)n1-2", "note": "(stereo partly shown) [dBET6]", "values": [
      {"measurement": "IC50 (nM) NGP", "setting": "NGP", "result": "187/6"}
    ]},
    {"smiles": "COc1ccc(CC[C@@H](OC(=O)[C@@H]2CCCCN2C(=O)Cc2ccccc2)c2cccc(OCC(=O)NCCCCNC(=O)COc3cccc4c3C(=O)N(C3CCC(=O)NC3=O)C4=O)c2)cc1OC", "note": "(stereo partly shown) [c1FKBP-5]", "values": [
      {"measurement": "IC50", "setting": "GST-FKBP12 (WT)", "result": "> 50000", "unit": "nM"},
      {"measurement": "IC50", "setting": "GST-FKBP12 (36V)", "result": 2290, "unit": "nM"},
      {"measurement": "DC50", "setting": "[5]", "result": 2970, "unit": "nM"},
      {"measurement": "Max Degradation (dual luciferase, %) FKBP", "setting": "[5]", "result": 11, "unit": "%"},
      {"measurement": "Max Degradation (dual luciferase, %) FKBP 36V", "setting": "[6]", "result": "<5", "unit": "%"}
    ]}
  ]
}
